Results on four molecules are retold here after patent US20250163122A1, “COMPOSITIONS AND METHODS FOR TREATING AIRWAY MUCUS DYSFUNCTION” (BOARD OF REGENTS, THE UNIVERSITY OF TEXAS SYSTEM, priority 2022, published 2025).

Bridges are numbered along the chain shown (N, C = ends). Where no end group is shown, it is not given here. [ ]: non-standard residue; d: D form. S5 = C=CCCC[C@](C)(N)C(=O)O

The subject of data set [1] is airway lumenal mucus in mouse lung. Briefly: Airway lumenal mucus accumulation in mice. Format: in vivo. To be noted: pretreatment, aerosol 200 μM, IL-13 then methacholine. On the procedure: To measure airway lumenal mucus content, mucous metaplasia was induced as above, then mucin secretion and bronchoconstriction were induced by exposure for 10 min to an aerosol of 150 mM methacholine. Lungs were harvested and fixed by immersion for 48 h at 4° C. to avoid displacement of lumenal mucus and using methanol-based Carnoy's solution (methacarn) for fixation to minimize changes in mucus volume. A single transverse 5 μm section was taken through the axial bronchus of the left lung between lateral branches 1 and 2 and stained with PAFS as above to evaluate intracellular mucin to ensure secretion had been stimulated. […]
To measure the efficiency of stimulated mucin secretion and the extent of mucus accumulation in the airway lumen of WT mice treated with peptides, the same procedures as those used for analysis of Syt2 mutant mice were followed, except that both outcomes were measured in the same mouse by fixation of the left lung by inflation with formalin to measure mucin secretion and fixation of the right lung by immersion in methacarn to measure mucus accumulation. […] In addition, a MicroSprayer Aerosolizer (Penn-Century) was used for peptide delivery to the airways, secretion was measured in the left axial bronchus at a site 3 mm distal to the site used in the Syt2 mutant mice, and mucus accumulation was measured in the right caudal lobe.

Data set [2] relates to Muc5ac secretion from HAECs. Briefly: Mucin (Muc5ac) secretion assay in HAECs. Format: cell-based, human. The method, then:
Cell culture. […] Growth medium was replaced every two days. […] The apical medium was replaced after 48 h.
Mucin secretion assay in HAECs. […] In brief, for the 24 h peptide treatment, 20 μl of DMEM+/−100 μM peptides was added to the apical surface 24 h before stimulation. On the day of the assay, cells were washed 5 times with 100 μl DMEM for 1 h for each wash on the apical side. Apical supernatants were collected after every wash ([…]), then 100 μl of DMEM+/−100 μM peptides was added to the apical surface and HAECs incubated for 15 min before collecting the supernatant (baseline wash). HAECs were then incubated for an additional 15 min with 100 μl DMEM+/−100 μM ATP (Sigma) before collection of supernatants (experimental washes). Following sample collection, cells were lysed in 100 μl of lysis buffer (lysate) containing 50 mM Tris-HCl pH 7.2, 1 mM EDTA, 1 mM EGTA, 1% Triton-X (Sigma), protease inhibitor cOmplete mini EDTA-free and phosphatase inhibitor PhosSTOP (Roche, Germany). The protocol was adapted for 30 min peptide treatment as follows. After wash 5, 100 μl of DMEM+/−10 μM or 100 μM of peptides was added to the apical surface and HAECs incubated for 30 min (baseline wash). HAECs were then incubated for 30 min with 100 μl DMEM+/−100 μM ATP to collect experimental washes.
All samples were diluted 1:10 in PBS (washes and cell lysates) and 50 μl of each sample were vacuum-aspirated onto a 0.45 μm pore nitrocellulose membrane using the Bio-Dot® MicrofiltrationApparatus (Bio-Rad). […] All steps were performed at room temperature. Fluorescent signals were acquired using the Odyssey® Fc Imaging System (Li-Cor®, USA) and quantified using ImageJ (v.2.0.0; NIH, USA). Equal volumes of samples were loaded on the gels for control and peptide treatments. […] Stimulated secretion is therefore normalized to baseline secretion within individual filters to account for filter to filter heterogeneities.

In data set [3] the test system is mouse airway epithelial cells. Briefly: Mucin secretion without secretagogue after peptide aerosol in mice with mucous metaplasia. The settings on record: mouse, in vivo. Format: in vivo. The method, then:
To investigate whether SP9 could have therapeutic benefit in vivo, SP9 conjugated to CPPs and fluorophores was introduced into mouse airways using a microsprayer inserted into the distal trachea under direct visualization with a laryngoscope. […] All subsequent studies of airway mucin secretion were therefore performed in the distal axial bronchus. […] This effect was not observed with the injection of buffer alone.
The peptide solution was injected into the airway under pressure to generate a droplet aerosol. A high concentration of peptides was used in these experiments in part because the solution is expected to be in contact with the airway epithelium only briefly and to mostly end up in the alveolar region.

In data set [4] the test system is fractional secretion of intracellular mucin in mouse airways. Briefly: Stimulated mucin secretion in mice (IL-13, then methacholine). Type of data set: in vivo. The settings on record: pretreatment, aerosol 200 μM 30 min before secretagogue, IL-13 mice. The method, then:
Mucin secretion and airway mucus occlusion in mice. The efficiency of stimulated mucin secretion and the extent of mucus accumulation in the airway lumen of Syt2 mutant mice were measured as described previously (Jaramillo et al, 2019). Briefly, to increase intracellular mucin content (i.e., induce mucous metaplasia), 3 μg IL-13 (BioLegend) in 40 μl PBS was instilled every other day×3 into the posterior pharynx of mice under isoflurane anesthesia to be aspirated during inhalation. […] Fractional mucin secretion was calculated as the percentage […] mucin content of mice of the same genotype treated only with IL-13. To measure intracellular airway epithelial mucin content, lungs were inflated via the trachea with 10% neutral buffered formalin to 20 cm water pressure for 24 h at 4° C., then embedded in paraffin. […] Images were acquired using an upright microscope (Olympus BX 60) with a ×40 NA 0.75 objective lens, and intracellular mucin was measured around the circumferential section of the axial bronchus using ImagePro (Media Cybernetics). Images were analyzed by investigators blinded to mouse genotype and treatment, and data are presented as the epithelial mucin volume density, signifying the measured volume of mucin overlying a unit area of epithelial baseline lamina. […]

Data set [5] addresses T1, Syt1 C2B (Homo sapiens (Human), UniProt P21579 272-422).
T1 construct: Expressed as a GST fusion in E. coli and the tag cleaved with PreScission protease; also called C2B domain of Syt1; Syt1C2B, aa 271-421
Briefly: bulk fluorescence anisotropy, Cy3-labeled peptide with varying concentrations of C2B. Background: Fluorescence polarisation rises when a labelled molecule tumbles more slowly, as on binding a larger partner.

Data set [6] addresses T2, Syt2 C2B (Rattus norvegicus (Rat), UniProt P29101 272-422).
T2 construct: also called C2B domain of Syt2
The data set is described as above.

In data set [7] the target is T1, Syt1 C2B. Briefly: bulk fluorescence anisotropy, Cy3-labeled peptide with varying concentrations of unlabeled C2B; Hill fit with coefficient constrained to one.
Data set [8] deals with T2, Syt2 C2B. The data set is described as above.
Setting [9] is: 10 μM peptide, 30 min pre-incubation, metaplastic conditions.

T1 sequence (P21579 272-422 limits assumed): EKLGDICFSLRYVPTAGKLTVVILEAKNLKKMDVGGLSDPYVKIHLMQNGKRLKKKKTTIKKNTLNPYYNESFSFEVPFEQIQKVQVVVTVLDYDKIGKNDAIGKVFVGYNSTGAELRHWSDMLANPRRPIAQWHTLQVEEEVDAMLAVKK
T2 sequence (P29101 272-422 limits assumed): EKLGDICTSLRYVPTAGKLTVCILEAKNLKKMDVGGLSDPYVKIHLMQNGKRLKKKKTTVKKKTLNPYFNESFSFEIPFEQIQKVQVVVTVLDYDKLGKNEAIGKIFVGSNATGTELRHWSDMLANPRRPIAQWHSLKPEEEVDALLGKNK

For “H2N-RQIKIWFQNRRMKWKKEE(S5)KDA(S5)IR(S5)LVM(S5)DEQ-(C/Cy3Mal)-amide [PEN-SP9-Cy3]”, in data set [1], the “reduction of airway lumenal mucus accumulation in the right lung” value worked out at 33.1%. The “reduction of stimulated (IL-13+ATP) Muc5ac secretion” value in data set [2] (setting [9]) is reported as 48%. Besides, the “reduction of stimulated Muc5ac secretion” value in data set [2] (100 μM peptide for 24 h before stimulation, metaplastic HAECs) was determined as 73%. The “mucin secretion of Cy3-labeled cells without a secretagogue (side-effect)” value in data set [3] was “did not show this problem”. In addition, the “reduction of fractional secretion of intracellular mucin stimulated by methacholine” value in data set [4] stood at 82.3%.

As to “H2N-RQIKIWFQNRRMKWKKEESKDAGIRTLVMLDEQ-(C/Cy3Mal)-amide (H-RQIKIWFQNRRMKWKKEESKDAGIRTLVMLDEQ-{C(Cy3 maleimide)-NH2}) [PEN-P9-Cy3, non-stapled control peptide with penetratin and Cy3, reference compound]”, the “effect on airway lumenal mucus accumulation in the right lung” value in data set [1] is on record as “no effect”. In data set [2] (setting [9]), the “effect on stimulated secretion” value is on record as “no effect”. The “effect on fractional secretion of intracellular mucin stimulated by methacholine” value in data set [4] is given as “no effect”.

B1: P0-Cy3 (peptide)
peptide: EESKDAGIRTLVMLDEQGEQLD-{C(Cy3 maleimide)-NH2}
notes: Labeled control peptide of the anisotropy assay; also called PO-Cy3; Cy3-labeled P0
Turning to B1, the binding result in data set [5] and in data set [6] was “no binding” in each case.

B2: SP9-Cy3 (peptide)
peptide: Ac-EE[S5]KDA[S5]IR[S5]LVM[S5]DEQ
modifications: staple 10-14, 3-7; not fully specified (C-terminus); printed as Ac-EE(S5)KDA(S5)IR(S5)LVM(S5)DEQ-(C/Cy3Mal)-amide; also: Cy3 maleimide on C-terminal Cys
notes: Synthetic hydrocarbon-stapled peptide; This Cy3-labeled form was used in the bulk fluorescence anisotropy assay, diluted to 10 nM; also called Cy3 labeled SP9; Cy3-labeled SP9
On to B2, for which the Kd in data set [7] was found to be 24 µM; in data set [8], 35 µM.

The term Kd denotes the concentration at which binding is half-saturated. Read a high Kd as weaker binding.
